Experimental data: ChEMBL document CHEMBL1201862, “PubChem BioAssay data set” (2004)
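48-hour exposure; five concentrations; linearly interpolated endpoints. GI50 is the concentration that inhibits growth by half.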 Calls of active or inactive are those of the source. Cut-off read from the data, not from the text of the source: active = GI50 up to about 1.1 µM and inactive = higher.

Legend:
Assay in all cases: DTP human tumour cell line panel, 48 h
SR = tested on: SR
HCT-15 = tested on: HCT-15
U-251 = tested on: U-251
786-0 = tested on: 786-0
MOLT-4 = tested on: MOLT-4
RXF 393 = tested on: RXF 393
SK-MEL-2 = tested on: SK-MEL-2
LOX IMVI = tested on: LOX IMVI
SK-MEL-28 = tested on: SK-MEL-28
KM12 = tested on: KM12
UO-31 = tested on: UO-31
UACC-62 = tested on: UACC-62
HT-29 = tested on: HT-29
EKVX = tested on: EKVX
SK-OV-3 = tested on: SK-OV-3
SW-620 = tested on: SW-620
HL-60 = tested on: HL-60
HCC 2998 = tested on: HCC 2998

| Compound | GI50 (SR) | GI50 (HCT-15) [µM] | GI50 (U-251) | GI50 (786-0) | GI50 (MOLT-4) | GI50 (RXF 393) | GI50 (SK-MEL-2) | GI50 (LOX IMVI) | GI50 (SK-MEL-28) | GI50 (KM12) | GI50 (UO-31) | GI50 (UACC-62) | GI50 (HT-29) | GI50 (EKVX) | GI50 (SK-OV-3) | GI50 (SW-620) | GI50 (HL-60) | GI50 (HCC 2998) |
| --- | --- | --- | --- | --- | --- | --- | --- | --- | --- | --- | --- | --- | --- | --- | --- | --- | --- | --- |
| CC(=O)OC1COC(N2CCc3cc([N+](=O)[O-])ccc32)C(OC(C)=O)C1OC(C)=O (centres undefined) | > 100 µM (inactive) | > 100 | > 100 µM (inactive) | > 100 µM (inactive) | > 100 µM (inactive) | > 100 µM (inactive) | > 100 µM (inactive) | > 100 µM (inactive) | > 100 µM (inactive) | > 100 µM (inactive) | > 100 µM (inactive) | > 100 µM (inactive) | > 100 µM (inactive) | > 100 µM (inactive) | > 100 µM (inactive) | > 100 µM (inactive) |  |  |
| CC(=O)OC1(C#N)CC2OC1C1C2N1C(=O)c1ccccc1 (centres undefined) |  | > 100 | > 100 µM (inactive) | > 100 µM (inactive) | > 100 µM (inactive) | > 100 µM (inactive) | > 100 µM (inactive) | > 100 µM (inactive) | > 100 µM (inactive) |  | > 100 µM (inactive) | > 100 µM (inactive) |  | > 100 µM (inactive) | > 100 µM (inactive) | > 100 µM (inactive) | > 100 µM (inactive) | > 100 µM (inactive) |
| CC(C(=O)N1C(=O)N(C(=O)C(C)C(O)c2ccccc2)C2CCCCC21)C(O)c1ccccc1 (centres undefined) | 28.6 µM (inactive) | > 100 | > 100 µM (inactive) | > 100 µM (inactive) | 26.2 µM (inactive) | 66.1 µM (inactive) | 30.3 µM (inactive) | 79.4 µM (inactive) | > 100 µM (inactive) | 37.1 µM (inactive) | 34.6 µM (inactive) | > 100 µM (inactive) | > 10 µM (inactive) | 81.3 µM (inactive) |  | > 100 µM (inactive) | 27.7 µM (inactive) |  |
| Cc1[nH]c2cc([N+](=O)[O-])ccc2c1[N+](=O)[O-] |  |  | 19.9 µM (inactive) | 29 µM (inactive) | 19.5 µM (inactive) | 13.6 µM (inactive) | 14.1 µM (inactive) | 24.6 µM (inactive) | 21 µM (inactive) | 21.3 µM (inactive) | 7.96 µM (inactive) |  | 27.9 µM (inactive) | 11.7 µM (inactive) |  | 25.2 µM (inactive) | 20.6 µM (inactive) | 15 µM (inactive) |
| O=c1nc2occc2cn1C1CC(O)C(CO)O1 (centres undefined) | > 100 µM (inactive) | > 100 | > 100 µM (inactive) | > 100 µM (inactive) | > 100 µM (inactive) | > 100 µM (inactive) |  | > 100 µM (inactive) | > 100 µM (inactive) | > 100 µM (inactive) | > 100 µM (inactive) | > 100 µM (inactive) | > 100 µM (inactive) | > 100 µM (inactive) | > 100 µM (inactive) | > 100 µM (inactive) | > 100 µM (inactive) | > 100 µM (inactive) |
| N/N=C1\C(=O)N(c2ccc(Cl)c(Cl)c2)C(=O)C1C(=O)Nc1ccc(Cl)c(Cl)c1 (centres undefined) |  | 50.7 | 31.1 µM (inactive) | 89.5 µM (inactive) | 42.4 µM (inactive) | > 100 µM (inactive) | 50.4 µM (inactive) |  | 31 µM (inactive) | 50.7 µM (inactive) | 19.8 µM (inactive) | 51.4 µM (inactive) | 49.9 µM (inactive) | 89.1 µM (inactive) |  | 91.4 µM (inactive) | 74.5 µM (inactive) | 62.4 µM (inactive) |
| COC(=O)CCC(NC(=S)N/N=C(\C)c1ccc[nH]1)C(=O)OC (centres undefined) |  | > 100 | > 100 µM (inactive) | > 100 µM (inactive) | > 100 µM (inactive) | > 100 µM (inactive) | > 100 µM (inactive) | > 100 µM (inactive) | > 100 µM (inactive) | > 100 µM (inactive) | > 100 µM (inactive) | > 100 µM (inactive) | > 100 µM (inactive) | > 100 µM (inactive) | > 100 µM (inactive) | > 100 µM (inactive) | > 100 µM (inactive) | > 100 µM (inactive) |
| O=C1C(c2ccc(Br)cc2)=[N+]([O-])c2ccccc21 |  | 5.97 | 14.7 µM (inactive) | 17.1 µM (inactive) | 4.79 µM (inactive) | 16.9 µM (inactive) | 11.7 µM (inactive) | 8.75 µM (inactive) | 20.2 µM (inactive) | 14.8 µM (inactive) | 14.3 µM (inactive) | 16 µM (inactive) | 21.6 µM (inactive) | 16 µM (inactive) | 55.1 µM (inactive) | 26.1 µM (inactive) | 2.14 µM (inactive) | 13.5 µM (inactive) |
| CC(=O)/C=C1/c2ccccc2N(C(C)=O)C1O (centres undefined) | > 100 µM (inactive) | > 100 | > 100 µM (inactive) | > 100 µM (inactive) | > 100 µM (inactive) | > 100 µM (inactive) | > 100 µM (inactive) |  | > 100 µM (inactive) | > 100 µM (inactive) | > 100 µM (inactive) | > 100 µM (inactive) | > 100 µM (inactive) | > 100 µM (inactive) | > 100 µM (inactive) | > 100 µM (inactive) | > 100 µM (inactive) | > 100 µM (inactive) |
